Reference: a melting point compilation (Tetko et al.; mined from patent text by program, amines drawn as free bases though some values may be those of a salt)

melting point	SMILES
158 °C	Cc1ccc(S(=O)(=O)n2c(I)cc3cc(F)cnc32)cc1
240 to 242 °C	COc1ccc(-c2nccc(N3CCN(c4c(C)c(C)c5c(c4C)CC(C)(C)O5)CC3)n2)cc1
141 to 144 °C	CS(=O)CCC(=N)NS(N)(=O)=O (centres undefined)
89 to 90 °C	CCOC(=O)c1c(CC)nn2ccc3oc(C)cc3c12
119 to 122 °C	CC(C)(C)OC(=O)N[C@@H](C(=O)N1CCC[C@H]1C(=O)NC1CCc2n[nH]cc2C1)C(c1ccccc1)c1ccccc1 (some centres undefined)
50 to 51 °C	C=CCONC(CCC)=C1C(=O)OC(CCC)=C(Br)C1=O
217 to 218 °C	CCC(=O)Nc1cc(C(=O)O)ccc1N1C(=O)CCC1(CO)CO
272 to 274 °C	CC(C)(C)c1nc2c(N)nc(-c3ccncc3)nc2[nH]1
76 to 78 °C	COc1cccc(COc2cc3c(cc2-c2cc(C=CC(=O)O)ccc2OC)C(C)(C)CCC3(C)C)c1
137 to 139 °C	OCC1OC(n2cnc3c(NNC4COc5c(Cl)cccc5C4)ncnc32)C(O)C1O (centres undefined)
105 to 107 °C	CCCCc1nn(-c2cccc(NC(=O)CC)c2)c(=O)n1Cc1ccc(-c2ccccc2S(=O)(=O)NC(=O)c2ccccc2Cl)cc1
219 to 221 °C	O=C(CCCc1ccccc1)NCC(=O)N1c2ccccc2N(Cc2ccccc2)C(=O)[C@H]2CCC[C@H]21 (relative stereo)
92 to 93 °C	CCN(CC)C(=O)c1ccoc1-c1ccc2ccccc2c1
182 °C	CCCN1CCC(c2cccc(C(N)=O)c2)CC1
97 to 100 °C	CCCCCN(CCC12CC3CC(CC(C3)C1)C2)C(=O)NCCCn1ccnc1
127 to 129 °C	CC(C)C(=O)OC(OC(=O)NC1(C(=O)O)CC1)C(C)C (centres undefined)
162 °C	CSc1ccc(Oc2ccc(N)cc2)c(C)c1
110 to 112 °C	CC(C)(C)C1Cc2cc([N+](=O)[O-])ccc2N1 (centres undefined)
196 °C	NCCN1CCC(Nc2nc3ccccc3n2Cc2ccnc3ccccc23)CC1
179 °C	OC1CSC(Oc2ccc(-c3ccnc(Cl)c3)nc2)C(O)C1O (centres undefined)
161 to 163 °C	Cc1ccc(OC(=O)N=C2NC(c3ccc(C)cc3)=NC2(C(F)(F)F)C(F)(F)F)cc1
155 °C	Cc1ccc2ccc(N3C(=O)c4ccccc4C3CC(=O)CCC(C)C)nc2n1 (centres undefined)
172 to 173 °C	O=C1CCC(C(=O)Nc2ccc(-n3nc(C(F)(F)F)cc3C(F)(F)F)cc2)O1 (centres undefined)
79 to 80 °C	COc1cc(Cc2cnc(NCCSCc3csc(CN(C)C)n3)[nH]c2=O)ccn1
137 to 141 °C	CC(C)NCC(O)COc1cccc(C2=NNC(=O)CC2)c1 (centres undefined)

melting point	SMILES
65 to 67 °C	CCCCCCCCCCCCCCCCCCCCC(CCCCCCCCCCCCCC)C(=O)O (centres undefined)
138 to 140 °C	COc1ccc(C2CCN(c3c(C)c(C)c4c(c3C)C(Nc3ccccc3)C(C)(C)O4)CC2)cc1OC (centres undefined)
139 to 140 °C	CCOC(C)c1ccc(OCCOc2ncnc(NS(=O)(=O)c3ccc(C(C)(C)C)cc3)c2-c2ccc(C)cc2)cc1 (centres undefined)
139 °C	CCOC(=O)C1=C(CC)NN=C(C(=O)OC)C1c1cccc([N+](=O)[O-])c1 (centres undefined)
261 to 262 °C	CCc1nc2cccc(C(=O)O)c2n1Cc1ccc(-c2ccccc2-c2nnn[nH]2)cc1
168 to 169 °C	CS(=O)(=O)c1ccc(-c2c(C(=O)O)c3cccccc-3c2-c2ccccc2)cc1
172 to 174 °C	CCOC(=O)c1ccc(NC(=O)c2ccc(F)cc2)cc1
139 to 140 °C	O=C(O)CCC(O)c1ccc(-c2ccccc2)cc1 (centres undefined)
163 to 164 °C	CC(C)NC(=O)OCC(=O)c1ccc(Cl)cc1
177 to 179 °C	CCCCn1c(=O)c2c(N(C)C)n[nH]c2n(Cc2ccccc2)c1=O
122 to 124 °C	O=[N+]([O-])c1ccc(C(O)C(CO)N2CCC(Cc3ccccc3)CC2)cc1 (centres undefined)
177 to 179 °C	CCCCC(=O)Nc1ccc(Cl)c(-n2nc(CCCC)n(Cc3ccc(-c4ccccc4S(=O)(=O)NC(=O)OC(C)(C)C)cc3)c2=O)c1
78 to 82 °C	C=CCc1cc(C(=O)OC)ccc1O
225 to 227 °C	COc1ccc(C=C2COCC(=Cc3ccc(OC)c(C)c3C)C2=O)c(C)c1C
165 to 167 °C	CC(Nc1ncnc2c1ncn2C1OC(CO)C(O)C1O)c1ccccc1 (centres undefined)
180 to 183 °C	O=C(CCC1CCCC1)N1CCN(C(=O)c2cc(C(F)(F)F)cc(C(F)(F)F)c2)[C@H](Cc2c[nH]c3ccccc23)C1
72 to 74 °C	C(=NC1CCCCC1)c1cccc(Oc2ccccc2)c1
88 to 92 °C	COc1c(S(=O)(=O)Cl)ccc(Cl)c1CBr
200 to 202 °C	CC(=O)Oc1cc2nc(-c3ccccc3)nn2c2ccccc12
141 to 143 °C	O=C(COc1cccc(-n2nc(-c3ccc(F)cc3)c3cccnc32)c1)N1CCOCC1
79 to 81 °C	CC(=O)c1ccc(C(C)Oc2cccc(C(=O)Nc3ccc(C#N)cc3)c2)cc1 (centres undefined)
67 to 68 °C	CN1C(=O)N2CCSC2(C)C1=O (centres undefined)
192 to 193 °C	CCOC(=O)/C=C/c1cnc2c(c1)C(=O)N(C)c1ccc(Cl)nc1N2CC
145 to 146 °C	CNC(=O)N(O)C(C)C#Cc1ccc(Br)cc1 (centres undefined)
177 to 179 °C	C#CCc1cc(C(O)=S)cc(S(=O)(=O)Cl)c1Oc1ccccc1

melting point	SMILES
230 to 233 °C	NC(C=C(CP(=O)(O)O)c1ccccc1)C(=O)O (centres undefined)
126 to 128 °C	CC(C)OC(=O)C1=C2SCC(=CC(=O)N(C)C)N2CC1C (centres undefined)
95 °C	O=C(c1ccccc1)c1cc([N+](=O)[O-])ccc1NC1CCCC1
106 to 109 °C	CC(C)(C)c1cc(I)c2oncc2c1
225 to 227 °C	CNC(=O)C(Cc1ccc(F)cc1)NC(=O)Nc1n[nH]c(=S)s1 (centres undefined)
230 to 232 °C	Cc1ccc(-c2cc(N3CCCCC3)c(C#N)c3c2-c2ccccc2C3=O)cc1
157 to 159 °C	O=C(O)c1noc(-c2cnccc2C(F)(F)F)n1
218 to 220 °C	Nc1c(CC(=O)O)cccc1S(=O)(=O)c1ccccc1
166 °C	CC(C)Oc1ncc(C#N)c(O)n1
60 to 63 °C	Cc1ccc(C)c(SCCCCCCCC(=O)O)c1
87 to 89 °C	Cc1ccc(C(=S)CCCCCl)cc1
154 to 156 °C	COc1ccc2c(c1O)NC(OC)C1CCCN1C2=O (centres undefined)
142 to 146 °C	O=S(=O)(c1ccccc1)c1ccc(NN=C2CCCN(Cc3ccccc3)CC2)cc1
87 to 89 °C	CCCCOC(=O)[C@H]1NC(=O)[C@H]1N (relative stereo)
127 to 130 °C	CC(Br)C(=O)c1ccc(CN2C(=O)c3ccccc3C2=O)s1 (centres undefined)
142 to 144 °C	CC(=O)Oc1ccc2c(c1)C(C(Cl)(Cl)Cl)OC(C(Cl)(Cl)Cl)O2 (centres undefined)
226 to 227 °C	O=C(NCc1cccc(-c2nc(=O)c3ccccc3s2)n1)C(F)(F)F
203 to 205 °C	COc1cccc(-n2c(-c3cc(-c4ccc(S(C)(=O)=O)cc4)c(N4CCOCC4)s3)nc3ccccc3c2=O)c1
135 to 136 °C	O=C(O)COCc1nn(Cc2ccc(F)cc2)c2ccccc12
163 °C	O=[N+]([O-])c1cc(C(O)CN2CCN(C(c3ccccc3)c3ccccc3)CC2)ccc1Cl (centres undefined)
138 to 139 °C	CCCCn1c(=O)[nH]c(C(F)(F)F)c(Cl)c1=O
118 to 125 °C	CCOC(=O)C1=Cc2cc(Cl)c(O)cc2OC1C(F)(F)F (centres undefined)
160 to 161 °C	CCCCOC(=O)c1c(CBr)nc2cc(OC)c(OC)cc2c1-c1ccc(OC)c(OC)c1
> 300 °C	O=C1C=c2c(c3c4ccccc4sc3c3[nH]c4ccccc4c23)=N1
229 °C	O=C(NCCN1CCC(n2c(=O)[nH]c3ccccc32)CC1)c1ccco1

melting point	SMILES
54 to 55 °C	CC(C)n1cc(-c2ccc(F)cc2)nn1
223 to 225 °C	Cn1c(=O)c(-c2ccc(Cl)cc2Cl)cc2c3cc(I)ccc3n(C)c21
111 to 115 °C	Cc1noc(NS(=O)(=O)c2ccccc2-c2ccc(-c3ncco3)cc2O)c1C
145 to 146 °C	C[C@@H]1O[C@](C#CC2CC2)(C(F)(F)F)c2cc(Cl)ccc2NC1=O
> 300 °C	Cc1ncc([N+](=O)[O-])n1-c1nccc2[nH]c(=O)ccc12
210 to 211 °C	COc1ccc(Cn2nc(-n3cnn(Cc4ccc(F)cc4)c3=O)cc2C(=O)NCc2cccnc2)cc1
250 to 253 °C	COc1cccc2c1nc(C(F)F)n2-c1nc(Nc2ccc(N(C)S(C)(=O)=O)nc2)nc(N2CCOCC2)n1
95 to 100 °C	OC1CCc2c(Cl)cc(Cl)c(I)c21 (centres undefined)
136 to 138 °C	CC(O)c1coc2cc(NS(C)(=O)=O)c(Oc3ccccc3)cc2c1=O (centres undefined)
119 to 120 °C	O=[N+]([O-])c1ccc(OCC2CCN(c3ccncc3)CC2)cc1
65.5 to 66 °C	CCCCCCCCCCc1ccc2cc(O)c(SC)cc2c1
132 to 134 °C	O=C(O)c1cc(Cl)cc2c1O[C@@H]1CCCC[C@H]21 (relative stereo)
87 °C	CNc1nc(CO)ccc1C
220 °C	COc1ccc(-c2cc[nH]c(=O)n2)cc1OC1CC2CCC1C2 (centres undefined)
254 to 257 °C	O=C(O)c1coc(-c2ccc(Cl)c(C(=O)NCC34CC5CC(CC(C5)C3)C4)c2)n1
125 °C	CCN(CCCc1c[nH]c2c(F)cc(F)cc12)C1COc2c(C(N)=O)ccc(F)c2C1 (centres undefined)
69 to 70 °C	CS(=O)(=O)Oc1ccc(N)c(OCCBr)c1
165 to 169 °C	CC(O)c1cccc(-c2cc3c(=O)n(NS(C)(=O)=O)c(=O)[nH]c3cc2C(F)(F)F)c1 (centres undefined)
236 to 238 °C	CC1CCCN(c2cncc(C(=O)Nc3nnn[nH]3)n2)C1 (centres undefined)
61 to 64 °C	CCCCCCCCCCCCCCCCCCOc1ccc(C(=O)OC)c(O)c1
236 to 240 °C	C#CCC1(c2ccccc2)Cc2cc(OCC(=O)O)c(Cl)c(Cl)c2C1=O (centres undefined)
205 to 210 °C	COc1cc(N)c(-c2ncn[nH]2)cc1OC

SMILES	melting point
O=C(O)CC[C@H](NC(=O)Oc1ccc(N(CCCl)CCCl)cc1)C(=O)O	87 to 89 °C
Nc1cc(N2CCNCC2)ccc1[N+](=O)[O-]	159 to 160 °C
